For one data set, the target named is T1, OATP1B1 (Homo sapiens, UniProt Q9Y6L6).
T1 sequence (Q9Y6L6 1-691): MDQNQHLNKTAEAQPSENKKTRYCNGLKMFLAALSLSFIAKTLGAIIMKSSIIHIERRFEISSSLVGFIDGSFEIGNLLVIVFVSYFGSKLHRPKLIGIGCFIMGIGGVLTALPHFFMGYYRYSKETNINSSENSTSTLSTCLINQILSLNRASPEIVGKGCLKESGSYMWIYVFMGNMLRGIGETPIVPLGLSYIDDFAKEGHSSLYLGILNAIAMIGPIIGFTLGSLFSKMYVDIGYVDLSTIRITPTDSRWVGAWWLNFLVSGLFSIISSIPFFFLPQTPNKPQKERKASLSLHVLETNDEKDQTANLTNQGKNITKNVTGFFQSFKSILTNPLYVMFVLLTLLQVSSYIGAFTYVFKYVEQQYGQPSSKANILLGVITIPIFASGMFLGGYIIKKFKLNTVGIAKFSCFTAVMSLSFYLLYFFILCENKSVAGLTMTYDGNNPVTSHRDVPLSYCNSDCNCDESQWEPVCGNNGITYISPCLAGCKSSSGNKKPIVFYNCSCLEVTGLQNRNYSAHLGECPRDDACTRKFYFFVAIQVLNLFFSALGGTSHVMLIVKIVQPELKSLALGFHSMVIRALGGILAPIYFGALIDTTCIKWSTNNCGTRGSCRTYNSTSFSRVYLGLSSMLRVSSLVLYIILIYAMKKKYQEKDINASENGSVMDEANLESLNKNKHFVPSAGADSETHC
Nature of the data set: Transporter inhibition assay, OATP1B1. The conditions noted are these: for inhibition at 100 μM: cell line (HEK293 or MDCKII) stably expressing OATP1B1.

The target of the next data set is MRP3 (Homo sapiens, UniProt O15438). As to the kind of experiment: Transporter inhibition assay, MRP3.
For another data set, the target named is P-gp (Homo sapiens, UniProt P08183). As to the kind of experiment: Transporter inhibition assay, P-gp. It counts as biochemical.
The next data set deals with T2, OATP2B1 (Homo sapiens, UniProt O94956).
T2 sequence (O94956 1-709): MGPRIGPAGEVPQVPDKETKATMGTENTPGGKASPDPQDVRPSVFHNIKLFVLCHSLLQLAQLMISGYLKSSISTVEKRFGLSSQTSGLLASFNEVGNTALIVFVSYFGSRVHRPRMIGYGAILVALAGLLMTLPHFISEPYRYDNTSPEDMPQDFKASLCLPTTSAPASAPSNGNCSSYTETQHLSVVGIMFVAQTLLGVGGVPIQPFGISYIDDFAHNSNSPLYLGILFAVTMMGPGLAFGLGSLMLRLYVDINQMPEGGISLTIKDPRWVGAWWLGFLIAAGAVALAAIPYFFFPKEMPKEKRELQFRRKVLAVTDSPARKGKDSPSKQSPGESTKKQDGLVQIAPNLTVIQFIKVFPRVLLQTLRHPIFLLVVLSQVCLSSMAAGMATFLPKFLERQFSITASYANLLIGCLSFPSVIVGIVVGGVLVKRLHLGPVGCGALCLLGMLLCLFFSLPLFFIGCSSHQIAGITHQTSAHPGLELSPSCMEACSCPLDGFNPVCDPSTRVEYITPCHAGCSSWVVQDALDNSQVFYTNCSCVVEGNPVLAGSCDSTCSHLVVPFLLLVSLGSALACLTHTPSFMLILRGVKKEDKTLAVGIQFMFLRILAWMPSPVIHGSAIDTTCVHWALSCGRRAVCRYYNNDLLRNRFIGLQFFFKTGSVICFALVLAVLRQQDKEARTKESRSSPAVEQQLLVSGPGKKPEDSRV
As to the kind of experiment: Transporter inhibition assay, OATP2B1. The note with it: for inhibition at 100 μM: cell line (HEK293 or MDCKII) stably expressing OATP2B1.

Another data set concerns the target T3, MATE1 (Homo sapiens, UniProt Q96FL8).
T3 sequence (Q96FL8 1-570): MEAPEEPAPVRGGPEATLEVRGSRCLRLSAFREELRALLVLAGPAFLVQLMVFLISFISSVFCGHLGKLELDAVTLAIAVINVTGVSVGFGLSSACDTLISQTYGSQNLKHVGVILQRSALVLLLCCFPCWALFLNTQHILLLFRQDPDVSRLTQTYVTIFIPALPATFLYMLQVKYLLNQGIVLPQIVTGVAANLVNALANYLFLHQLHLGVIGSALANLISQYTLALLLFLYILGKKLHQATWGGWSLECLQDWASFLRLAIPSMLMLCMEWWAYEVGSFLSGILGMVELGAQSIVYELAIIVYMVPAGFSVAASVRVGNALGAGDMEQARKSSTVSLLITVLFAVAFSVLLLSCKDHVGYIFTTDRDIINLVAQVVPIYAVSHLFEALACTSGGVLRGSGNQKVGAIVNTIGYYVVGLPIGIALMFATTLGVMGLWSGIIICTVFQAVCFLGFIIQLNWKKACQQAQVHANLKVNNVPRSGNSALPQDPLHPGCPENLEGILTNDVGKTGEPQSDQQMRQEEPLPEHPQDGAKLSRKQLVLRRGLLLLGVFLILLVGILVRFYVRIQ
Nature of the data set: Transporter inhibition assay, MATE1.

Another data set concerns the target T4, OATP1B3 (Homo sapiens, UniProt Q9NPD5).
T4 sequence (Q9NPD5 1-702): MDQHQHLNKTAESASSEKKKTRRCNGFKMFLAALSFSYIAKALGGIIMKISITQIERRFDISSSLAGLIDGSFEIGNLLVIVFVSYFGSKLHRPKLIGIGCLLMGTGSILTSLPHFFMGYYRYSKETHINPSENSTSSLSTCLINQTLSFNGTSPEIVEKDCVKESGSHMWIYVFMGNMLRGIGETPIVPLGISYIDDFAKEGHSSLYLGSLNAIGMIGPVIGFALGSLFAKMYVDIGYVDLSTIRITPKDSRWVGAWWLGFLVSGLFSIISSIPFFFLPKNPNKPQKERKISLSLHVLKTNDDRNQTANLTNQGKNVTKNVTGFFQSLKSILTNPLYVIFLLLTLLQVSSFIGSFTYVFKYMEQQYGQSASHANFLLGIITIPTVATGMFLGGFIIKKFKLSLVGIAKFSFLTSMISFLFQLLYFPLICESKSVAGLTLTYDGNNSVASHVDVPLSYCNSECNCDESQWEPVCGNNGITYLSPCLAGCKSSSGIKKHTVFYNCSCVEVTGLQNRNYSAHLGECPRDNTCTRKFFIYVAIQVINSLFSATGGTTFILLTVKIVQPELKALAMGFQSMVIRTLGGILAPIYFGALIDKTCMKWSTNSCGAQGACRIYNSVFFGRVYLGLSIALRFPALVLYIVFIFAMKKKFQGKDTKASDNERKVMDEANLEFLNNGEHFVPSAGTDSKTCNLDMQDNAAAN
As to the kind of experiment: Transporter inhibition assay, OATP1B3. The conditions noted are these: cell line (HEK293 or MDCKII) stably expressing OATP1B3. Format: cell-based.

Broadly, the inhibition is the percentage by which the read-out fell short of the control. A higher inhibition goes with a response far below the control. In general, IC50 refers to the concentration needed to halve the response being measured. A low value points to higher potency.

Values joined by “and” are separate entries in the source; they are usually repeats but may differ in a detail not shown here. Equal entries are not always repeated. Where two headings read alike, the source gives them in different places.

Chain of MRP3 (O15438 whole entry): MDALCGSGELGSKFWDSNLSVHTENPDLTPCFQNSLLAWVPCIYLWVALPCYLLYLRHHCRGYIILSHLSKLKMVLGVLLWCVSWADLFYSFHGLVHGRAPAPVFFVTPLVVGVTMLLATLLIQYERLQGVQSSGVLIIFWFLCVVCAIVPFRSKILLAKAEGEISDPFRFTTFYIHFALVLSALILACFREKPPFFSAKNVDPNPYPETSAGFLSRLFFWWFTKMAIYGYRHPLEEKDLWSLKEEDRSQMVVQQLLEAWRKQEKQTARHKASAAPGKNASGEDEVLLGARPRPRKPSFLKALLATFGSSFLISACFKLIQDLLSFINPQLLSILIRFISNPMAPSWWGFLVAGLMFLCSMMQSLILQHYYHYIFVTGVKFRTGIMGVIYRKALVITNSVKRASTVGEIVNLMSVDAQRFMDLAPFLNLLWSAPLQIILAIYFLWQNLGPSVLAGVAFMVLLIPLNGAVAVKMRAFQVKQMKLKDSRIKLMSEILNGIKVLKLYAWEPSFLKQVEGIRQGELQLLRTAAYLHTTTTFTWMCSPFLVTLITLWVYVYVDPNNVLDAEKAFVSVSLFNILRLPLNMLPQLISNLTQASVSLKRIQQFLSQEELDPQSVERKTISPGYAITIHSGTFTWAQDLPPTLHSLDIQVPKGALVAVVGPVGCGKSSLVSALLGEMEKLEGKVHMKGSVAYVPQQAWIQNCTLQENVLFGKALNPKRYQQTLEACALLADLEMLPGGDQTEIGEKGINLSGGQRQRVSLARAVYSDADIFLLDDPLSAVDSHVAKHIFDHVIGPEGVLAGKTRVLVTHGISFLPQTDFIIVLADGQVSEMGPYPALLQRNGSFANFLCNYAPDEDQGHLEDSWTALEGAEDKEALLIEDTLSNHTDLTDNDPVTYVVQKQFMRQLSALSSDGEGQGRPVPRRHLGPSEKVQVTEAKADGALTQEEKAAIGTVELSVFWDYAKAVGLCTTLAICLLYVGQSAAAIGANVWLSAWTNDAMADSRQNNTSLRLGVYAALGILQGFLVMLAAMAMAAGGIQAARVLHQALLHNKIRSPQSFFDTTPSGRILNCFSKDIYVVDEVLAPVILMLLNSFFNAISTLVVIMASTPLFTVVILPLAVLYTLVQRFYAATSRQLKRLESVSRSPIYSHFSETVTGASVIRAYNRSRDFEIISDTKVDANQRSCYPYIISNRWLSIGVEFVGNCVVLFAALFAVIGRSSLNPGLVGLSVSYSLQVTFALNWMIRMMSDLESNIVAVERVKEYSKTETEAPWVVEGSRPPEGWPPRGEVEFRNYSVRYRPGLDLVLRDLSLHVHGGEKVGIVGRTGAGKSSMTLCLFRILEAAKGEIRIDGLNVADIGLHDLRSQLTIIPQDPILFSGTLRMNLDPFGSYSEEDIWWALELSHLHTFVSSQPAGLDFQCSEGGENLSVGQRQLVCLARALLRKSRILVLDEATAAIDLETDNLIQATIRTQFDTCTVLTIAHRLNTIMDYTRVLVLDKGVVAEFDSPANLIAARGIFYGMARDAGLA
Chain of P-gp (P08183 whole entry): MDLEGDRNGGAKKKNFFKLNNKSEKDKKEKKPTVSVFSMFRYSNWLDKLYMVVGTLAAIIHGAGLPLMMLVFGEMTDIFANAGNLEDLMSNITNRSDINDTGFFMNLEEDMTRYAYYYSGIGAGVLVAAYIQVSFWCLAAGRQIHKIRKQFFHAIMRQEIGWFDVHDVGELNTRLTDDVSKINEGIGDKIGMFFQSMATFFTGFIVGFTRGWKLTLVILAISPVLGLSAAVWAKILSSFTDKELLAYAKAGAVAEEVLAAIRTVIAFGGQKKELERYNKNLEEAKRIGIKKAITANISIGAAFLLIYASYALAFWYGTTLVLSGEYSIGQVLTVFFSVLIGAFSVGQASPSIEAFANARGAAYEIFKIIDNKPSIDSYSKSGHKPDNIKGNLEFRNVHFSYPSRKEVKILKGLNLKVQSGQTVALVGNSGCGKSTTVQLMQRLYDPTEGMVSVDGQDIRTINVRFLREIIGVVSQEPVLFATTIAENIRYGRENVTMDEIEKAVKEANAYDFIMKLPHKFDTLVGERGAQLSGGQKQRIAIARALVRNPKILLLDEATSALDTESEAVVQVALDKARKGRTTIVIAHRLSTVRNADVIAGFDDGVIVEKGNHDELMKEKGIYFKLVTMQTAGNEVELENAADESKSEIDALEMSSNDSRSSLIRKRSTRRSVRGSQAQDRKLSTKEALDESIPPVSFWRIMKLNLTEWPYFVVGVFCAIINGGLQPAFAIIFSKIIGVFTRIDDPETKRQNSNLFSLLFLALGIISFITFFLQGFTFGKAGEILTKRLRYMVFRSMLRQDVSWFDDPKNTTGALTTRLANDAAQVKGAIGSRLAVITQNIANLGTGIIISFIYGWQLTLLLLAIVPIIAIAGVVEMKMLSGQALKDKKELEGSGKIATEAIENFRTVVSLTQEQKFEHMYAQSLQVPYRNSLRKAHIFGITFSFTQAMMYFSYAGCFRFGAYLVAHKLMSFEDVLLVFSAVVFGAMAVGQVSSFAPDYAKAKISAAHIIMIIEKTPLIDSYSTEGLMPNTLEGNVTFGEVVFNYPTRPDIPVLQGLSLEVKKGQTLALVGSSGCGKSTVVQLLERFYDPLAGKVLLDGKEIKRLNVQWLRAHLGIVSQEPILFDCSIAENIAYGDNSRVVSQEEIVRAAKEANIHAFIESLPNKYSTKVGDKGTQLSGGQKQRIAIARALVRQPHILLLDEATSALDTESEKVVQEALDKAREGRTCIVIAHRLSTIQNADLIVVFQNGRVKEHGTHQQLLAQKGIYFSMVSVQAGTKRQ

Consider `COc1ccc2cc3[n+](cc2c1OC)CCc1cc2c(cc1-3)OCO2` [Berberine, berberine chloride], for which the inhibition at 100 μM at OATP1B1, against MRP3, against P-gp, against OATP2B1 and on OATP1B3 was less than 20% each time. Besides, the IC50 on MATE1 (IC50, MATE1, isolated alkaloids, mean [95% CI], three technical replicates) is < 1 µM and 0.73 µM.

Regarding `CN1CCc2cc3c(cc2C1O)OCO3` (stereo not shown) [Hydrastinine, hydrastinine chloride monohydrate], the inhibition at 100 μM against OATP1B1, on MRP3, on P-gp, against OATP2B1 and against OATP1B3 was less than 20% each time. The same compound came in with a half-inhibitory concentration (IC50) at MATE1 of 82 µM.

Consider `COc1ccc2c(c1OC)C(=O)O[C@@H]2[C@H]1c2cc3c(cc2CCN1C)OCO3` [(−)-β-Hydrastine, (1R,9S)-(−)-β-Hydrastine], for which the IC50 on OATP1B1 (OATP1B1, isolated alkaloids, mean [95% CI], three technical replicates) worked out at 120 µM; on MATE1 (MATE1, isolated alkaloids, mean [95% CI], three technical replicates) it was 110 µM. Further, the “inhibition at the highest concentration tested” value on MRP3 (MRP3, alkaloids screened at 10 and 100 μM) is on record as “-- (inhibition not observed)”; at OATP2B1 (OATP2B1, alkaloids screened at 10 and 100 μM) it was “-- (inhibition not observed)”.

For the origin of these results see PMC8058163 (Clinical pharmacology and therapeutics, 2020).
